Data taken from patent US20100286262A1, “PTGS2 HAPLOTYPES” (priority 2007, published 2010).

Legend:
[1] = test system: colorectal cancer patients (stage II/III) after potentially curative therapy; assay: VICTOR phase III randomised placebo-controlled trial of rofecoxib: overall survival; assay type: in vivo, human
Method: (§1) This was a phase III randomised, placebo-controlled double-blind trial of R in patients after potentially-curative surgery and completion of adjuvant therapy for stage II/III CRC. 7000 patients were planned to receive 25 mg R daily or an identical placebo (P) for 2 or 5 years, however the trial was terminated early after the worldwide withdrawal of R. A revised protocol and statistical analysis plan permitted detection of a reduction (HR=0.75) in risk of death with 87% power, with one pre-planned event-driven interim analysis.
Patients were randomly assigned to receive R or P at 151 hospitals in the United Kingdom. Inclusion criteria included: histologically proven stage II and III colorectal carcinoma in patients who had undergone complete resection of the primary tumour; WHO Performance Status 0 or 1; haematological, liver and renal function within the normal range. All patients had completed potentially curative therapy (surgery+/−radiotherapy+/−chemotherapy) 12 or fewer weeks previously and had given written informed consent. Patients with active peptic ulceration or gastrointestinal bleeding in the past year, a history of adverse reactions to NSAIDs, or a known sensitivity to R were excluded, as were those receiving long-term NSAID therapy (except for low-dose aspirin, <100 mg per day), those younger than 18 years, and women who were pregnant, lactating, or premenopausal but not using contraception. Patients with a history of cancer (other than adequately treated in situ carcinoma of the cervix, basal or squamous-cell carcinoma), inflammatory bowel disease, or severe congestive heart failure were also excluded.
It was planned to randomly allocate R (one 25-mg tablet daily) or identical P to 7000 patients, with half of each group receiving the study drug for 2 or 5 years. Suitable patients were randomly assigned in a double blind fashion to R or P through the VICTOR Trial Office, which supplied drugs to participating hospitals every 6 months. Minimisation was used to balance allocations by stage (II, III), disease site (colon, rectum, recto-sigmoid), age (<50, 50-59, 60-69, 70+) prior adjuvant chemotherapy and radiotherapy.
(§2) Data-collection forms were amended to solicit baseline data on cardiovascular risk factors, for all patients After worldwide withdrawal of rofecoxib all investigators and patients were informed, study treatment was stopped, and follow-up continued, at 3, 6, 12, 18 and 24 months after randomisation and annually thereafter. Patients received a colonoscopy 1-2 years after primary surgery and 2- to 3-yearly thereafter; a CT scan about 1 year after surgery; clinical examination and routine blood tests at outpatient visits. All recurrences were confirmed by CT or MRI scan and patients were flagged for survival with the UK's Office of National Statistics. Adverse event data were recorded systematically throughout the study and were reviewed by the trials team (RM, DJK and MJL) to clarify diagnoses.
The original study was powered to detect a reduction in risk of death between treatments for stage II and stage III separately, (hazard ratio 0.80), with type I error 0.05. The modified statistical plan, after premature closure with 2434 patients, permitted detection of a reduction in risk of death of HR 0.75, 87% power, with type I error 0.05, and one interim analysis specified according to an O'Brien-Fleming alpha-spending rule when there were 350 events. The threshold for statistical significance for OS at this analysis is p<0.01325. OS, the primary endpoint, was measured from randomisation to death from any cause. Secondary endpoints include DFS, measured from randomisation to recurrence or death from any cause and recurrence-free survival, measured from randomisation to recurrence and/or colorectal cancer death. This is the report of the interim analysis, with 368 deaths. Kaplan-Meier curves and log-rank analysis were used for comparisons of OS and DFS. Subgroups were examined using HR plots. […]

[2] = test system: colorectal cancer patients (stage II/III) after potentially curative therapy; assay: VICTOR trial: safety (serious adverse events, early discontinuations), treated population; assay type: in vivo
Method: as §1, §2
The original study was powered to detect a reduction in risk of death between treatments for stage II and stage III separately, (hazard ratio 0.80), with type I error 0.05. The modified statistical plan, after premature closure with 2434 patients, permitted detection of a reduction in risk of death of HR 0.75, 87% power, with type I error 0.05, and one interim analysis specified according to an O'Brien-Fleming alpha-spending rule when there were 350 events. The threshold for statistical significance for OS at this analysis is p<0.01325. OS, the primary endpoint, was measured from randomisation to death from any cause. Secondary endpoints include DFS, measured from randomisation to recurrence or death from any cause and recurrence-free survival, measured from randomisation to recurrence and/or colorectal cancer death. This is the report of the interim analysis, with 368 deaths. Kaplan-Meier curves and log-rank analysis were used for comparisons of OS and DFS. Subgroups were examined using HR plots. Hazard ratios and their confidence intervals were calculated from log-rank statistics and variances. Cox's proportional hazards models were used to estimate the treatment effect adjusted by prognostic factors. All reported p-values are two-sided. For analysis of OS, patients not reported as dead were censored at their last known date alive. For analysis of DFS, patients who were alive and recurrence-free were censored at their last known recurrence-free date. For analysis of DFS in first year after randomisation, patients who were alive and recurrence-free at one year were censored at that time. Numbers of SAEs were compared using a normal approximation to the Poisson distribution.
Serious Adverse Events (SAEs) were collected for each patient from enrolment until the data lock of November 2007. Cardiovascular thrombotic events have previously been reported in detail. In summary, of 23 confirmed cardiovascular thrombotic events that occurred within the treatment period or within 14 days after cessation, 16 occurred in the R arm and 7 in the P arm with an estimated relative risk of 2.66 (95% confidence intervals (CI) 1.03-6.86; p=0.04). These included fatal and nonfatal myocardial infarction, unstable angina, sudden death from cardiac causes, fatal and nonfatal ischemic stroke, transient ischemic attack, peripheral arterial thrombosis, peripheral venous thrombosis, and pulmonary embolism. Fourteen more cardiovascular thrombotic events, six in the R arm and eight in the P arm, were reported within the two years after the trial closure, with an overall total period unadjusted relative risk of 1.50 (95% CI 0.76-2.94; p=0.24). […]

CS(=O)(=O)c1ccc(C2=C(c3ccccc3)C(=O)OC2)cc1 [rofecoxib, 3-phenyl-4-(4(methylsulfonyl)phenyl)-2-(5H)-furanone]
Number of patients still at risk (overall survival, FIG. 5) ([1]; 0 years from randomisation): 1217 | Hazard ratio (HR) for dying from any cause (overall survival), R compared with P ([1]; 25 mg daily, intention-to-treat, 1217 vs 1217, 95% CI 0.77 to 1.16, P=0.57): 0.94 | Number of patients still at risk (overall survival, FIG. 5) ([1]; 1 year from randomisation): 1152 | Number of patients still at risk (overall survival, FIG. 5) ([1]; 2 years from randomisation): 1012 | Number of patients still at risk (overall survival, FIG. 5) ([1]; 3 years from randomisation): 663 | Number of patients still at risk (overall survival, FIG. 5) ([1]; 4 years from randomisation): 219 | Number of patients still at risk (overall survival, FIG. 5) ([1]; 5 years from randomisation): 21 | Number of deaths without recurrent disease ([1]; 14 in P group): 15 | 3-year Kaplan-Meier OS rate ([1]; 95% CI 85.7 to 89.6, P group 86.6): 87.6% | HR for colorectal cancer-specific mortality ([1]; R vs P, 95% CI 0.75-1.15, p=0.50): 0.93 | Patient deaths with no reported cause ([1]; each group): Five | Number of deaths ([1]; over the study period, 191 in placebo group): 177 | HR for dying adjusted for stage, age, radiotherapy group and aspirin use at baseline ([1]; proportional hazards analysis, 95% CI 0.78-1.17, p=0.64): 0.95 | Early discontinuation of study drug for hypertension (patients) ([2]; 1 in P): 7 | Early discontinuation of study drug for renal impairment (patients) ([2]; 1 in P): 7 | SAE: cardiac failure of unknown aetiology (patients) ([2]; 1 in P): 4 | SAE: stable angina (patients) ([2]; 2 in P): 5 | SAE: various infections (patients) ([2]; 3 in P, p=0.05): 10 | Early discontinuation of study drug for diarrhea (patients) ([2]; 4 in P): 4 | SAE: cardiac arrhythmias (patients) ([2]; 4 in P): 3 | Early discontinuation of study drug for gastrointestinal pain or heartburn (patients) ([2]; 5 in P): 15 | Early discontinuation of study drug for analgesia required for arthritis (patients) ([2]; 15 in P): 4 | Overall total period unadjusted relative risk of cardiovascular thrombotic events ([2]; 95% CI 0.76-2.94, p=0.24): 1.50 | Early discontinuation of study drug for heart failure (patients) ([2]; in vivo): 2 | Enhanced cardiovascular adverse event profile ([2]; in vivo): 1-2% | Other SAEs (depression, neuralgia, polymyositis, epilepsy), frequency ([2]; in vivo): less than 0.2% | SAE: hypertension (patients) ([2]; in vivo): 2 | Gastro-intestinal SAEs (indigestion/gastroduodenal ulceration, diarrhoea, constipation, obstruction), frequency in patients ([2]; no significant difference comparing R and P): less than 1% | All-cause SAEs (in words) ([2]; p=0.05): there was an association with R administration | Estimated relative risk of cardiovascular thrombotic events ([2]; treatment period or within 14 days after cessation, 95% CI 1.03-6.86, p=0.04): 2.66 | Confirmed cardiovascular thrombotic events ([2]; within the treatment period or within 14 days after cessation, 7 in P arm): 16 | Further cardiovascular thrombotic events ([2]; within the two years after the trial closure, eight in P arm): six
